Consider six molecules from patent publication US4035507A, “Novel, transient pro-drug forms of L-DOPA to treat Parkinson's disease” (Interx Research Corporation, priority 1976, dated 1977).

A short description of data set [1]: Blood concentration of L-DOPA following oral administration of L-DOPA or an L-DOPA derivative to Beagle dogs.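 On all read-outs here: dogs of both sexes, 12 to 14 Kg body weight.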 As to conditions: three Beagle dogs; for L-DOPA at the peak / area under the curve / time for reaching the peak: L-DOPA in blood after oral administration; for [L-DOPA] (μg/ml) at time (hours) 0.5 / [L-DOPA] (μg/ml) at time (hours) 1.0 / [L-DOPA] (μg/ml) at time (hours) 2.0 / [L-DOPA] (μg/ml) at time (hours) 4.0 / [L-DOPA] (μg/ml) at time (hours) 6.0 / [L-DOPA] (μg/ml) at time (hours) 3.0 / [L-DOPA] (μg/ml) at time (hours) 1.5: blood; for [L-DOPA] (μg/ml) at time (hours) 0.5: 0.5 hours after oral administration of 0.1 of L-DOPA or equivalent amount of derivative; for [L-DOPA] (μg/ml) at time (hours) 1.0: 1.0 hours after oral administration of 0.1 of L-DOPA or equivalent amount of derivative; for [L-DOPA] (μg/ml) at time (hours) 2.0: 2.0 hours after oral administration of 0.1 of L-DOPA or equivalent amount of derivative; for [L-DOPA] (μg/ml) at time (hours) 4.0: 4.0 hours after oral administration of 0.1 of L-DOPA or equivalent amount of derivative; for [L-DOPA] (μg/ml) at time (hours) 6.0: 6.0 hours after oral administration of 0.1 of L-DOPA or equivalent amount of derivative; for [L-DOPA] (μg/ml) at time (hours) 3.0: 3.0 hours after oral administration of 0.1 of L-DOPA or equivalent amount of derivative; for [L-DOPA] (μg/ml) at time (hours) 1.5: 1.5 hours after oral administration of 0.1 of L-DOPA or equivalent amount of derivative.
Text: Reference to (a) refers to the values obtained from three Beagle dogs for each compound tested, the Beagle dogs being of both sexes and weighing from 12 to 14 Kg.
Reference to [L-DOPA] refers to the concentration of L-DOPA

For data set [2] the following is noted: Coutinaho, Spiegel et al. (1971); Weiss and Rossi (1963); cited from earlier work.

Take `N[C@@H](Cc1ccc(O)c(O)c1)C(=O)O` [(0), 3,4-dihydroxy-L-phenylalanine, reference compound]: in data set [1], the “L-DOPA at the peak” value was 0.9 µg/mL, the “area under the curve” value is 2.6 µg/h/mL, the “time for reaching the peak” value is 1.8 h and the “[L-DOPA] (μg/ml) at time (hours) 0.5” value is 0.14 µg/mL. Besides, in data set [1], the “[L-DOPA] (μg/ml) at time (hours) 1.0” value turned out to be 0.64 µg/mL, the “[L-DOPA] (μg/ml) at time (hours) 2.0” value was 0.87 µg/mL, the “[L-DOPA] (μg/ml) at time (hours) 4.0” value was determined as 0.22 µg/mL and the “[L-DOPA] (μg/ml) at time (hours) 6.0” value was determined as 0.11 µg/mL. Moreover, the “half-life of L-DOPA in the bloodstream” value in data set [2] is listed as “approximately 45 minutes”.

On to `COC(=O)[C@@H](N)Cc1ccc(OC(C)=O)c(OC(C)=O)c1.Cl` [Compound (I), 3,4-diacetyloxy-L-phenylalanine-methyl ester, HCl], for which, in data set [1], the “L-DOPA at the peak” value stood at 1.6 µg/mL, the “[L-DOPA] (μg/ml) at time (hours) 2.0” value was determined as 0.39 µg/mL and the “[L-DOPA] (μg/ml) at time (hours) 3.0” value turned out to be 0.12 µg/mL.

`CC(=O)Oc1ccc(C[C@H](N)C(=O)OCc2ccccc2)cc1OC(C)=O.Cl` [Compound (II), 3,4-diacetyloxy-L-phenylalanine-benzyl ester hydrochloride]: in data set [1], the “L-DOPA at the peak” value stood at 2.3 µg/mL, the “area under the curve” value turned out to be 5.96 µg/h/mL, the “time for reaching the peak” value stood at 0.5 h and the “[L-DOPA] (μg/ml) at time (hours) 0.5” value came to 1.71 µg/mL. Besides, in data set [1], the “[L-DOPA] (μg/ml) at time (hours) 1.0” value was 1.30 µg/mL, the “[L-DOPA] (μg/ml) at time (hours) 1.5” value came to 1.08 µg/mL, the “[L-DOPA] (μg/ml) at time (hours) 2.0” value came out at 0.55 µg/mL and the “[L-DOPA] (μg/ml) at time (hours) 3.0” value stood at 0.20 µg/mL. Besides, in data set [1], the “[L-DOPA] (μg/ml) at time (hours) 4.0” value was 0.14 µg/mL and the “[L-DOPA] (μg/ml) at time (hours) 6.0” value was determined as 0.05 µg/mL.

As for `CC(=O)Oc1ccc(C[C@H](NC(=O)CN)C(=O)O)cc1OC(C)=O.Cl` [Compound (III), glycyl-3,4-diacetyloxy-L-phenylalanine-hydrochloride], in data set [1], the “L-DOPA at the peak” value stood at 2.4 µg/mL, the “area under the curve” value was 7.25 µg/h/mL, the “time for reaching the peak” value amounted to 0.75 h and the “[L-DOPA] (μg/ml) at time (hours) 0.5” value worked out at 1.34 µg/mL. In data set [1], the “[L-DOPA] (μg/ml) at time (hours) 1.0” value was 1.95 µg/mL, the “[L-DOPA] (μg/ml) at time (hours) 1.5” value stood at 1.21 µg/mL, the “[L-DOPA] (μg/ml) at time (hours) 2.0” value stood at 0.43 µg/mL and the “[L-DOPA] (μg/ml) at time (hours) 3.0” value came out at 0.27 µg/mL. Moreover, in data set [1], the “[L-DOPA] (μg/ml) at time (hours) 4.0” value stood at 0.13 µg/mL and the “[L-DOPA] (μg/ml) at time (hours) 6.0” value turned out to be 0.02 µg/mL.

With `COC(=O)[C@H](Cc1ccc(OC(C)=O)c(OC(C)=O)c1)NC(=O)CN.Cl` [Compound (IV), glycyl-3,4-diacetyloxy-L-phenylalanine-methyl ester hydrochloride], in data set [1], the “L-DOPA at the peak” value stood at 1.7 µg/mL, the “area under the curve” value stood at 3.38 µg/h/mL, the “time for reaching the peak” value turned out to be 0.80 h and the “[L-DOPA] (μg/ml) at time (hours) 0.5” value was 0.79 µg/mL. In data set [1], the “[L-DOPA] (μg/ml) at time (hours) 1.0” value was 1.17 µg/mL, the “[L-DOPA] (μg/ml) at time (hours) 1.5” value is 0.51 µg/mL, the “[L-DOPA] (μg/ml) at time (hours) 2.0” value was 0.33 µg/mL and the “[L-DOPA] (μg/ml) at time (hours) 3.0” value is 0.08 µg/mL. Further, in data set [1], the “[L-DOPA] (μg/ml) at time (hours) 4.0” value came to 0.02 µg/mL and the “[L-DOPA] (μg/ml) at time (hours) 6.0” value was 0 µg/mL.

For the molecule `CC(=O)Oc1ccc(C[C@H](N)C(=O)NCC(=O)O)cc1OC(C)=O.Cl` [Compound (V), 3,4-diacetyloxy-L-phenylalanyl-glycine hydrochloride], in data set [1], the “L-DOPA at the peak” value was 1.8 µg/mL, the “area under the curve” value was 5.30 µg/h/mL, the “time for reaching the peak” value was found to be 1.2 h and the “[L-DOPA] (μg/ml) at time (hours) 0.5” value turned out to be 0.26 µg/mL. For the same molecule, in data set [1], the “[L-DOPA] (μg/ml) at time (hours) 1.0” value was 1.30 µg/mL, the “[L-DOPA] (μg/ml) at time (hours) 1.5” value came to 1.62 µg/mL, the “[L-DOPA] (μg/ml) at time (hours) 2.0” value turned out to be 0.80 µg/mL and the “[L-DOPA] (μg/ml) at time (hours) 3.0” value is 0.23 µg/mL. In data set [1], the “[L-DOPA] (μg/ml) at time (hours) 4.0” value stood at 0.03 µg/mL and the “[L-DOPA] (μg/ml) at time (hours) 6.0” value stood at 0 µg/mL.
